Laboratory results as given in ChEMBL document CHEMBL5113368, “Meroterpenoids produced by fungi: Occurrence, structural diversity, biological activities, and their molecular targets” (Eur J Med Chem, 2021).
Each block holds one molecule with its values, some of them ahead of it.

Experiments:
Acetylcholinesterase = Acetylcholinesterase (Homo sapiens, UniProt P22303); test: Inhibition of human erythrocyte AChE using acetylthiocholine iodide as substrate incubated for 20 mins by DTNB reagent based spectrophotometric method
Acetylcholinesterase, sequence (P22303 whole entry, the tested form may be a part): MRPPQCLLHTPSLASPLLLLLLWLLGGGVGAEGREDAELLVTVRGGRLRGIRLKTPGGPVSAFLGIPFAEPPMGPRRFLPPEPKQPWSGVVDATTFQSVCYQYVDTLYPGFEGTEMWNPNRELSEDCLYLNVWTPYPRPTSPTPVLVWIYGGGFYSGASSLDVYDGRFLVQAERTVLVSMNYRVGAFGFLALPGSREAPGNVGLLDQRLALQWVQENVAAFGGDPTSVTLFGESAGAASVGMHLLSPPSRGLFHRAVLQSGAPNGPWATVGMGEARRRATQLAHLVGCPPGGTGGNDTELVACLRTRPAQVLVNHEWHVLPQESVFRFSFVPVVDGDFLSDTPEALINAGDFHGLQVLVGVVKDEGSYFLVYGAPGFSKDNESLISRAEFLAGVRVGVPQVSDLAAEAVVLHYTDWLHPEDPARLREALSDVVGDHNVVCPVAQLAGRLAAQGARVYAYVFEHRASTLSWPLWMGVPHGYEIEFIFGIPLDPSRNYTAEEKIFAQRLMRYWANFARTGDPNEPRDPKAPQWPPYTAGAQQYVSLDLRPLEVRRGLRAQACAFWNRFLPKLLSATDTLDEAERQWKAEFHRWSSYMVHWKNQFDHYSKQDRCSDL

[1] = target: Epithelial discoidin domain-containing receptor 1 (Homo sapiens, UniProt Q08345); test: Inhibition of DDR1 (unknown origin) by lanthascreen eu kinase activity assay
Epithelial discoidin domain-containing receptor 1, sequence (Q08345 whole entry, the tested form may be a part): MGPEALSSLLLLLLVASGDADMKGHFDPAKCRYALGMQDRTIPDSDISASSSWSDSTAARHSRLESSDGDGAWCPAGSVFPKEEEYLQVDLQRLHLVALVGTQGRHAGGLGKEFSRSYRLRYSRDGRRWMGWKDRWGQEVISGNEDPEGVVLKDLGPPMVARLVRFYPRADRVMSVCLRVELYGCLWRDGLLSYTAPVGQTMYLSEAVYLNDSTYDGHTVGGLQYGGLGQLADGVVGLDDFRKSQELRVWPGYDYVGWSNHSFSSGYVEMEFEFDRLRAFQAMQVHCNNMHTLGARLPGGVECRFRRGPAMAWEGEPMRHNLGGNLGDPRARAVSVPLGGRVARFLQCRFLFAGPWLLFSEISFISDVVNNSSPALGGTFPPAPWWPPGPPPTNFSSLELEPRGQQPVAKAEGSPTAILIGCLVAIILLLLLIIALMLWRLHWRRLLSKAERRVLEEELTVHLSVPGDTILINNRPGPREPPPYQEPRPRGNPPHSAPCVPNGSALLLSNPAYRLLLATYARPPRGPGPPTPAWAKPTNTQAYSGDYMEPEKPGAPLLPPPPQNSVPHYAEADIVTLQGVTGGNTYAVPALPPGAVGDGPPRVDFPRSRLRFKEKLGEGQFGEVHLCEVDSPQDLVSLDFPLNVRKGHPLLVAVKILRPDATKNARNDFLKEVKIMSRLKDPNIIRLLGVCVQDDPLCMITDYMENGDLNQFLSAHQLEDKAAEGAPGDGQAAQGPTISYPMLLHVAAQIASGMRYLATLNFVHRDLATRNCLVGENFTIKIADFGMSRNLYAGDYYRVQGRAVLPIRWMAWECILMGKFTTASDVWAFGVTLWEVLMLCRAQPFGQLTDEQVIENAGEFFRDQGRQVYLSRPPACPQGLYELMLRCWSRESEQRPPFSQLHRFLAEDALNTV

[2] = target: T1, Prostaglandin G/H synthase 2 (Homo sapiens, UniProt P35354); test: Inhibition of COX-2 (unknown origin)
T1 sequence (P35354 whole entry): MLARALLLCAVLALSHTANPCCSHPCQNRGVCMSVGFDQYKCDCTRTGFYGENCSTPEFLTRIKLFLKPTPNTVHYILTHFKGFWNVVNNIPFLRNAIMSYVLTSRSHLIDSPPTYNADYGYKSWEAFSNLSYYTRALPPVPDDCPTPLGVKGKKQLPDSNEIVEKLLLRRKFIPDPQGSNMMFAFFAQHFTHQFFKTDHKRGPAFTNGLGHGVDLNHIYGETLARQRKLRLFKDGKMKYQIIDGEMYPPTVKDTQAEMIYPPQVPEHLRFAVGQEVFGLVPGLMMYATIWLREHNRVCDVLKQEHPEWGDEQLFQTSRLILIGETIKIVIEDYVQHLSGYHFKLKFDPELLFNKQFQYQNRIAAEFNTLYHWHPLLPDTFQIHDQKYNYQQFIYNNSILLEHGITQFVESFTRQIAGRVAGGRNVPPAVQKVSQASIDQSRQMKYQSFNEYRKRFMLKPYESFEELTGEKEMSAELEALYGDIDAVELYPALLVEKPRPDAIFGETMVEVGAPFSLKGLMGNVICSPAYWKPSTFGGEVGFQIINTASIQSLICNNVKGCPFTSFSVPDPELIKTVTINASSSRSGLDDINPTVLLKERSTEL

[3] = Inhibition of Saccharomyces cerevisiae alpha-glucosidase using p-nitrophenyl-alpha-D -glucopyranoside as substrate pre-incubated for 10 mins followed by substrate addition measured after 15 mins by absorbance based analysis
[4] = target: T2, Tyrosine-protein phosphatase non-receptor type 1 (Homo sapiens, UniProt P18031); test: Inhibition of PTP1B (unknown origin) using pNPP as substrate by spectrophotometer analysis
T2 sequence (P18031 whole entry): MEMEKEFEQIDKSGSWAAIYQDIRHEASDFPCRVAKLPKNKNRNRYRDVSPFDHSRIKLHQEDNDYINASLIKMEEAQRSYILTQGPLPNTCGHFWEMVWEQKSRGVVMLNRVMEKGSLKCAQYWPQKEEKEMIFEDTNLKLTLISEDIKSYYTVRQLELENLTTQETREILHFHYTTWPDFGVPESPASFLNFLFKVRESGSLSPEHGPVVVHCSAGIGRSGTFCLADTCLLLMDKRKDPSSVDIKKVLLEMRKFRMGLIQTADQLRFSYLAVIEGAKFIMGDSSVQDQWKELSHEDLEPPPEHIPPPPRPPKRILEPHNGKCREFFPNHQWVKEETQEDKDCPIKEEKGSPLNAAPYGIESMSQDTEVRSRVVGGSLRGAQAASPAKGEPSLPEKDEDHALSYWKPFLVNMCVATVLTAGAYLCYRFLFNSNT

[5] = target: T3, Pancreatic triacylglycerol lipase (Sus scrofa, UniProt P00591); test: Inhibition of porcine pancreatic lipase using p-Nitrophenyl butyrate substrate incubated for 15 mins by spectrophotometer analysis
T3 sequence (P00591 whole entry): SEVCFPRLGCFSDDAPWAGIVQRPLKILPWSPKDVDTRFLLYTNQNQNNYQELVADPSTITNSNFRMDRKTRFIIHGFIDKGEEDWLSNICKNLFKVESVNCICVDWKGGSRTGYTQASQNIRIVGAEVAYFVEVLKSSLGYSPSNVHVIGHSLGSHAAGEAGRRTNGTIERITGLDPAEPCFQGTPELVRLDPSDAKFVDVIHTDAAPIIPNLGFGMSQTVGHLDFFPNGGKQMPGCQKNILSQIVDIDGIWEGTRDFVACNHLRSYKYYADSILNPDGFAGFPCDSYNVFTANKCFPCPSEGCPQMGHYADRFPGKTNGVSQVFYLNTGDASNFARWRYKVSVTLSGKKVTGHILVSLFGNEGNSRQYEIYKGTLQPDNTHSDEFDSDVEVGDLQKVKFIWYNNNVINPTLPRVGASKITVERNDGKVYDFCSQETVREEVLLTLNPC

[6] = target: T4, Tyrosine-protein kinase JAK3 (Homo sapiens, UniProt P52333); test: Inhibition of JAK3 (unknown origin) by FRET-based Z'-Lyte assay
T4 sequence (P52333 whole entry): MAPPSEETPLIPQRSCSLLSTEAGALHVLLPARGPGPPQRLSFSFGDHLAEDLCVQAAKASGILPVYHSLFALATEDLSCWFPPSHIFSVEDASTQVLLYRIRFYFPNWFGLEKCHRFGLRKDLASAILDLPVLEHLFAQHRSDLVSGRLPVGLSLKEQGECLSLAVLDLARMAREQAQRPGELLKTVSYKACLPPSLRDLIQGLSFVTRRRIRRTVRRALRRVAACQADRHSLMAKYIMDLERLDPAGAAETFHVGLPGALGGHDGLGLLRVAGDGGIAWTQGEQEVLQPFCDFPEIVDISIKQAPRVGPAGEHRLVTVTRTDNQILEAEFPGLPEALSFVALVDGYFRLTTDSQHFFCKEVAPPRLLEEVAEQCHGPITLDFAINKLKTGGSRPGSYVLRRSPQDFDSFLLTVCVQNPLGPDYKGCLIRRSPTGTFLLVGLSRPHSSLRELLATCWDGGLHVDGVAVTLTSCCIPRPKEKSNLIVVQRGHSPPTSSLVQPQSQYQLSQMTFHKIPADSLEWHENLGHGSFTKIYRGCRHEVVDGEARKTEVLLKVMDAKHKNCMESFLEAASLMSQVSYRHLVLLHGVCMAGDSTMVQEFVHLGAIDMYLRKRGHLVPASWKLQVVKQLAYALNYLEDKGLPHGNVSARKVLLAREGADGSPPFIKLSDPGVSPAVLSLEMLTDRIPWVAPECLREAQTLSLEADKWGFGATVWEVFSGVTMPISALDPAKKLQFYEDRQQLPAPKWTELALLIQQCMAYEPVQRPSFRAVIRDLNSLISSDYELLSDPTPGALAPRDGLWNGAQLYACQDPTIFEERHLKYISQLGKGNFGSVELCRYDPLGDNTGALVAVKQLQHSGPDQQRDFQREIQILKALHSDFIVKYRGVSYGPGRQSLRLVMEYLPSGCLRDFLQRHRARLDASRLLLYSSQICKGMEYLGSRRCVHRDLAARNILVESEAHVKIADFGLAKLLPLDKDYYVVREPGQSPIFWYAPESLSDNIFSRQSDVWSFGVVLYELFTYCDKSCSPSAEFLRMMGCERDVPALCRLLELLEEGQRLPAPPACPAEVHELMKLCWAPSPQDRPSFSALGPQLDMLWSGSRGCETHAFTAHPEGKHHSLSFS

Staphylococcus aureus = test: Antibacterial activity against Staphylococcus aureus assessed as bacterial growth inhibition; type: functional, organism-based
[7] = target: T1, Prostaglandin G/H synthase 2; test: Inhibition of human recombinant COX-2 pretreated with compound for 10 mins followed by substrate addition for 10 mins by fluorescent inhibitor screening assay
K562 = test: Cytotoxicity against human K562 cells assessed as cell growth inhibition by CCK-8 method; type: functional, cell-based

SMILES: COC/C(C=O)=C\CCC1=CC(c2cc(O)ccc2O)OC1=O (stereo not drawn)
IC50 (Acetylcholinesterase): 8.52 µM

SMILES: CCOC1(c2cc(O)ccc2O)C=C(CC/C=C(\C)CCC=C(C)C)C(=O)O1 (stereo not drawn)
IC50 (Acetylcholinesterase): 7.37 µM

IC50 [1]: 6.9 µM
SMILES: CO[C@@H]1OC(=O)[C@]2(CC(=O)c3cc(O)ccc3O)C[C@H]3[C@H](C/C=C(\CC(=O)c4cc(O)ccc4O)C(=O)O)C(C=O)=CO[C@H]3[C@]12C

IC50 [2]: 9.96 µM
SMILES: COC1(c2cc(O)ccc2O)C=C(CC[C@@H]2C(C)(C)[C@@H]3CC[C@]2(C)O3)C(=O)O1 (stereo partly drawn)

IC50 [3]: 39.2 µM
SMILES: C/C(=C\Cc1c(O)cc2c(c1O)CN(CCCC[C@@H](C(=O)O)N1Cc3c(cc(O)c(C/C=C(\C)CC/C=C(\C)C(=O)O)c3O)C1=O)C2=O)CC/C=C(\C)C(=O)O

IC50 [4]: 62.5 µM
SMILES: CC(=O)O[C@@H]1c2c3c(cc(O)c2C(=O)O[C@@H]1C)O[C@@]1(C)[C@@H](O)C[C@H]2C(C)(C)[C@@H](O)C=C[C@]2(C)[C@@H]1C3

IC50 [5]: 4 µM
SMILES: CC(C)=CCC/C(C)=C/CCC1=C[C@@]2(OC1=O)c1cc(O)ccc1OC(=O)[C@]2(CC/C=C(\C)CCC=C(C)C)CC(=O)c1cc(O)ccc1O

IC50 [6]: < 10 µM
SMILES: CO[C@H]1OC(=O)[C@@]2(CC(=O)c3cc(O)ccc3O)C[C@@H]3[C@@H](CCC4=C[C@@H](c5cc(O)ccc5O)OC4=O)C(C=O)=CO[C@@H]3[C@@]12C (racemic)

IC50 [5]: 27.3 µM
SMILES: CC(C)=CCC/C(C)=C/CCC1=C[C@]2(OC1=O)c1cc(O)ccc1OC(=O)[C@@]2(CC/C=C(\C)CCC=C(C)C)CC(=O)c1cc(O)ccc1O (racemic)

IC50 [1]: 8.2 µM | IC50 [6]: < 10 µM
SMILES: CO[C@H]1OC(=O)[C@@]2(CC(=O)c3cc(O)ccc3O)C[C@@H]3[C@@H](C/C=C(\CC(=O)c4cc(O)ccc4O)C(=O)O)C(C=O)=CO[C@@H]3[C@@]12C (racemic)

SMILES: C=C(C)C1CCC2(C(=O)OCC)CC13Oc1c(C/C=C(/CC/C=C(\C)CCC=C(C)C)C(=O)O)cc(O)cc1-c1c(O)ccc(c13)O2 (racemic)
IC50 (Staphylococcus aureus): 5.43 µM

IC50 [6]: < 10 µM
SMILES: CO[C@H]1OC(=O)[C@@]2(CC(=O)c3cc(O)ccc3O)C[C@@H]3[C@@H](CCC4=C[C@H](c5cc(O)ccc5O)OC4=O)C(C=O)=CO[C@@H]3[C@@]12C (racemic)

IC50 [7]: 1.29 µM
SMILES: CC(C)=CCC/C(C)=C/CCC1=C[C@]2(OC1=O)c1cc(O)ccc1OC(=O)[C@@]2(CCC=C(C)C)CC(=O)c1cc(O)ccc1O (racemic)

SMILES: C=C(C)C1CCC2(C(=O)OCC)CC13Oc1cc(C/C=C(/CC/C=C(\C)CCC=C(C)C)C(=O)O)c(O)cc1-c1c(O)ccc(c13)O2 (racemic)
IC50 (K562): 6.68 µM | IC50 (Staphylococcus aureus): 5.43 µM

SMILES: C=C(C)C1CCC2(C(=O)OCC)CC13Oc1c(C/C=C(\CO)CC/C=C(\C)CCC=C(C)C)cc(O)cc1-c1c(O)ccc(c13)O2 (racemic)
IC50 (K562): 7.68 µM

IC50 [7]: 1.29 µM
SMILES: CC(C)=CCCC1=C[C@]2(OC1=O)c1cc(O)ccc1OC(=O)[C@@]2(CC/C=C(\C)CCC=C(C)C)CC(=O)c1cc(O)ccc1O (racemic)
